# Assays:
# rat vagina [1] = experiment: Histological evaluation of epithelium, lamina propria and muscularis in the seven rat vaginal segments; type: in vivo; settings: OVX rats, 36 wk; for epithelium morphology: Acolbifene 2.5, Premarin 0.5 mg/kg oral, DHEA 80 mg/kg dorsal skin
# Description: (§1) The animals were housed individually and were allowed free access to water and rodent food (Lab Diet 5002, Ralston Purina, St-Louis, Mo.).
# (§2) Animals from the intact and OVX control groups received the vehicle alone.
# (§3) Twenty-four hours after the last dosing, overnight fasted animals were sacrificed under isoflurane anesthesia by exsanguination at the abdominal aorta (9 animals per group) or by intracardiac perfusion with 10% neutral buffered formalin (5 animals per group). Vaginae from non-perfused animals were collected and weighed, while the vaginae collected from perfused animals were marked with black ink on the ventral side, and then trimmed as described below.
# (§4) The entire vagina of each perfused animal was post-fixed in 10% neutral buffered formalin.
# The degree of compactness of collagen fibers in the vagina was categorized as low, moderate and high (FIGS. 6A-6C, respectively), as observed in the area proximal to the epithelium. <<Low>> and <<moderate compactness>> were associated with the presence of coarse collagen fibers loosely or less loosely aggregated together, respectively, while <<high compactness>> was the term used to describe tightly packed fine collagen fibers, displaying a smooth, textured appearance. In all the animals, there were relatively few fibrocytes in proportion to the amount of collagen, and they appeared predominantly flattened and shrunken.
# [2] = Body weight after 14-day intravaginal DHEA suppository; type: in vivo, rat; settings: OVX rats, 14 days
# Description: as §1
# (§5) The insertion into the vagina of one suppository began on day 5 of the study and was continued once daily until day 18 of the study, for a total of 14 days of treatment. The suppository was gently placed in the vaginal opening and then delicately pushed about 2-3 mm inside the vagina with the help of a small, smooth glass stick, disinfected in 70% alcohol and dried between each animal.
# [3] = Serum concentration of DHEA after intravaginal application; type: in vivo; settings: female, rat
# Description: as §5
# ERα = experiment: Immunohistochemistry of ERα in fifth vaginal segment; type: in vivo, rat; settings: OVX rats, 36 wk
# Procedure: as §2
# (§6) Immunostaining was performed using Zymed SP kits (San Francisco, Calif.). Paraffin sections (4 μm) were deparaffinized in toluene and rehydrated through ethanol. Endogenous peroxidase activity was eliminated by preincubation with 3% H2O2 in methanol for 30 min. A microwave retrieval technique using citrate buffer (Tacha and Chen, 1994) was applied. After cooling the slides, non-specific binding was blocked using 10% goat serum for 20 min. Sections were then incubated for 1.5 h at room temperature with ERα (AB-1, Calbiochem, California), AR (N-20, Santa Cruz Biotechnology, California) or PR (Ab-4, NeoMarkers, California) antibodies, at 1:200, 1:250 and 1:250 respectively. After washing in PBS buffer, sections were incubated with biotinylated anti-rabbit secondary antibody for 10 min and thereafter with streptavidin-peroxidase for another 10 min. Diaminobenzidine was used as the chromogen to visualize the biotin/streptavidin-peroxidase complex, under microscope monitoring. Counterstaining was performed using #2 Gill's hematoxylin for 30 sec. For controls, immunoabsorption with an excess of the peptide used to raise the antibody, or substitution with non immune rabbit IgG, was performed.
# rat vagina [4] = settings: ovariectomized rat, DHEA 30 mg twice daily on dorsal skin, one, three or six months; cited from earlier work
# rat vagina [5] = experiment: Vaginal weight after 36 weeks of treatment; type: in vivo; settings: OVX rats, 36 wk, mean±SEM; OVX 101±5, intact 205±11
# Description: as §2, §3
# (§7) Data are presented as means±SEM of 8-9 animals per group for vaginal weight or 5 animals per group for vaginal layer thickness determinations. Statistical significance was determined according to the multiple-range test of Duncan-Kramer (Kramer, 1956, Biometrics, 12: 307-310).
# PR = experiment: Immunohistochemistry of PR in fifth vaginal segment; type: in vivo, rat; settings: OVX rats, 36 wk
# Procedure: as §2, §6
# rat vagina [6] = experiment: Histomorphometry: thickness of vaginal layers at the fifth segment; type: in vivo; settings: OVX rats, 36 wk
# Description: as §2, §3, §4
# Measurements of the different vaginal layers were performed on the fifth segment (FIG. 1), which is approximately halfway between the middle region and the portio vaginalis uteri (segment 7). […] Images were captured with a DC-330 3CCD color camera (Dage-MTI, Michigan City, Ind., USA) and quantified using Image-Pro Plus 3.0 software (Media Cybernetics, Silver Spring, Md., USA). Thus, using a ×5 objective (Leica Microsystems, Willowdale, Ont., Canada), 3 to 4 thickness measurements per layer were obtained from representative areas of the epithelium and muscularis, and for the three vaginal layers together. The total vaginal thickness, the thickness of the epithelium and the thickness of the muscularis were thus measured. The thickness of the lamina propria was obtained by subtracting the thickness of the epithelium and muscularis from total vaginal thickness.
# as §7
# [7] = DHEA blood levels after topical DHEA (Example 1); type: in vivo, rat; settings: DHEA 80 mg/kg topically on dorsal skin, rats
# Description: as §2
smiles,measurement,setting,value
"C[C@]12CC[C@H](O)CC1=CC[C@@H]1[C@@H]2CC[C@]2(C)C(=O)CC[C@@H]12 [DHEA, dehydroepiandrosterone]",reversal of the OVX-induced epithelial atrophy,rat vagina [1]; at the doses used,partially reversed
same,layers of mucous cells in the vaginal epithelium,rat vagina [1]; segment 5,3-5 layers
same,epithelium morphology,rat vagina [1]; segment 1,KS-LHM
same,epithelium morphology,rat vagina [1]; segment 2,LHM
same,epithelium morphology,rat vagina [1]; segment 3,LHM
same,epithelium morphology,rat vagina [1]; segment 4,LHM
same,epithelium morphology,rat vagina [1]; segment 5,LHM
same,epithelium morphology,rat vagina [1]; segment 6,LHM-SCM
same,epithelium morphology,rat vagina [1]; segment 7,LHM-SCM
same,body weight compared with placebo group,[2]; DHEA 0.33 mg suppository intravaginal,slightly decreased
same,body weight compared with placebo group,[2]; DHEA 0.66 mg suppository intravaginal,slightly decreased
same,decrease of body weight compared with placebo group,[2]; DHEA 1 mg suppository intravaginal,more pronounced
same,AUC,[3]; 0.33 mg,32 ± 4 ng·h/mL
same,AUC,[3]; 0.66 mg,50 ± 7 ng·h/mL
same,AUC,[3]; 1 mg,131 ± 23 ng·h/mL
same,ERα: labeling intensity,ERα; epithelium,++
same,ERα: semi-quantitative evaluation of labeled nuclei,ERα; epithelium,2
same,ERα: labeling intensity,ERα; lamina propria,+++
same,ERα: semi-quantitative evaluation of labeled nuclei,ERα; lamina propria,2
same,ERα: labeling intensity,ERα; muscularis,+++
same,ERα: semi-quantitative evaluation of labeled nuclei,ERα; muscularis,3
same,histopathologic examination of the vagina,rat vagina [4],reversal of vaginal mucosal atrophy
same,vaginal weight,rat vagina [5],171 ± 12 mg
same,PR: semi-quantitative evaluation of labeled nuclei,PR; epithelium,0
same,PR: semi-quantitative evaluation of labeled nuclei,PR; lamina propria,0
same,PR: labeling intensity,PR; muscularis,++
same,PR: semi-quantitative evaluation of labeled nuclei,PR; muscularis,1
same,total vaginal thickness lower than that of the Premarin alone-treated group,rat vagina [6]; fifth segment,about 25%
same,muscularis thickness,"rat vagina [6]; fifth segment, mean±SEM",50±2 μm
same,thickness of the vaginal epithelium,"rat vagina [6]; fifth segment, mean±SEM",38±4 μm
same,total vaginal wall thickness,"rat vagina [6]; fifth segment, mean±SEM, OVX 128±3, intact 262±39",184±21 μm
same,lamina propria thickness,"rat vagina [6]; fifth segment, mean±SEM, total minus epithelium and muscularis, OVX 76±2, intact 135±28",96±20 μm
same,reversal of the OVX-induced decrease of the vaginal muscular layer,rat vagina [6]; 46% decrease after OVX,41%
same,reversal of the OVX-induced decrease in total vaginal wall thickness,rat vagina [6]; 50% decrease after OVX,42%
same,DHEA blood levels,[7],70 to 100 nmol/L

# From patent US10076525B2, “Sex steroid precursors alone or in combination with selective estrogen receptor modulators for the prevention and treatment of dyspareunia in postmenopausal women” (ENDORECHERCHE, INC., priority 2004, dated 2018)
